Assay results published in patent publication US4156011A, “Sulphur- and oxygen-containing diaryl compounds” (priority 1974, dated 1979).
Where a name gives a salt, the structure may show the parent alone. Read-outs that look alike come from different tables or passages of the source.

Key:
[1] = tested on: blood platelet aggregation; assay: Anti-aggregation action in rats (graded / in words); type: in vivo; set-up: key to Anti-aggregation action: -: zero activity; +: significant activity; ++: intense activity; +++: very intense activity
Description: (b) by ADP: the inhibition of aggregation (that is to say the % transmission).

[2] = Solubility of the isolated product
Clinical tests in man = type: in vivo; details: for treatment of hyperlipidaemia: man
Description: The clinical tests have made it possible to confirm the pharmacological tests. Thus, in man, CRL 40,293 (Example 23) in the form of gelatine-coated pills containing 400 mg of active ingredient administered at the rate of 2 such pills twice daily has given good results in the treatment of circulatory complaints and especially of lipid disturbances.
CRL 40,386 (Example 8) has been used in man for the treatment of hyperlipidaemia in the form of gelatine-coated pills each containing 300 mg of active ingredient at the rate of 2 to 6 such pills per day.

[3] = Reduction of lipids and cholesterol in rats treated orally; type: in vivo; details: for inhibition in vivo at 50 mg/kg: oral 50 mg/kg; for inhibition in vivo at 20 mg/kg: po, 120 h, 5 days
[4] = tested on: platelets (aggregation induced by collagen); assay: Anti-aggregation action, platelet aggregation induced by collagen; type: in vivo, male Wistar rats; details: 4 days
Description: (a) by collagen: the inhibition of aggregation (which corresponds to the % transmission), the latency period and the speed; and
In Table IV which follows have been shown the results relating to the anti-aggregation action of some products on the blood of male Wistar rats, the aggregating agents used being collagen/acetic acid diluted 1/10, and ADP at 1 μM.

[5] = Hypo-lipidaemic and hypo-cholesterolaemic action in rats on hyper-lipid diet; type: in vivo, Wistar rats; details: hyper-lipid diet; for inhibition at 10 mg/kg / inhibition at 25 mg/kg / inhibition at 100 mg/kg: Rattus norvegicus, normal diet = 100%, hyper-lipid diet = 0%
Description: A. a batch of rats receiving a normal diet (percentage inhibition=100%);
B. a batch of rats receiving a hyper-lipid diet (percentage inhibition=0%);
C. a batch of rats receiving the hyper-lipid diet B with a daily dose, of 0.1 g/kg, of a reference product having a lipidaemia-normalising action, namely Lipavlon [ethyl 2-(p-chlorophenoxy)-2-methyl-propionate];
D. a batch of rats receiving the hyper-lipid diet B with a daily dose, of 0.1 g/kg, of another product having a lipidaemia-normalising action, namely LL 1558 [1,10-bis-(2-hydroxyethyl-thio)-decane]; and
E. a batch of rats receiving the hyper-lipid diet B with a daily dose of 10 mg/kg and 25 mg/kg, where necessary, higher doses.
In Table III which follows have been shown the results relating to CRL 40,201 (the product of Example 17) and CRL 40,202 (the product of Example 18) in respect of the hypo-lipidaemic action and hypo-cholesterolaemic action.

[6] = Hypo-lipidaemic and hypo-cholesterolaemic action of other products (Table V); type: in vivo, rats; details: Rattus norvegicus, 96 h; for change in vivo at 10 mg/kg: oral 10 mg/kg for 4 days; for change in vivo at 100 mg/kg: oral 100 mg/kg for 4 days
Description: The results of the anti-aggregation test and of the hypo-[…] action and hypo-cholesterolaemic action tests of other products of the invention have been […] Table V which follows, the code used being the following (for each dose shown): […]

[7] = capsules or gelatine-coated pills of 500 mg, 2 to 4 per day
[8] = oral daily dose 0.010 g/kg, read-out: Total cholesterol % inhibition
[9] = oral daily dose 0.010 g/kg, read-out: Total lipids % inhibition
[10] = oral daily dose 0.025 g/kg, read-out: Total cholesterol % inhibition
[11] = oral daily dose 0.025 g/kg, read-out: Total lipids % inhibition
[12] = oral 200 mg/kg, collagen/acetic acid diluted 1/10
[13] = read-out: Total lipids (change)
[14] = oral daily dose 0.1 g/kg, read-out: Total cholesterol % inhibition
[15] = oral daily dose 0.1 g/kg, read-out: Total lipids % inhibition

For `CC(CO)Sc1ccc(Oc2ccc(Cl)cc2)cc1` (racemic) [CRL 40,282, (±)-2-[4-(4-Chlorophenoxy)-phenylthio]-1-propanol], the Anti-aggregation action ([1]; oral 100 mg/kg for 4 days) was “+” and the “solubility in water (in words)” value [2] was “water-insoluble”.

In the case of `CC(CNCCO)Sc1ccc(Oc2ccc(Cl)cc2)cc1` (racemic) [CRL 40,283, (±)-N-Hydroxyethyl-2-[4-(4-chlorophenoxy)-phenylthio]-1-propylamine], the Anti-aggregation action ([1]; oral 200 mg/kg for 4 days) is reported as “+” and the “solubility in aqueous hydrochloric acid solution (in words)” value ([2]; aqueous hydrochloric acid, pH 3 to pH 7) is reported as “soluble in an aqueous hydrochloric acid solution at between pH 3 and pH 7”.

With `CC(CO)Oc1ccc(Oc2ccc(Cl)cc2)cc1` (racemic) [CRL 40,300, (±)-2-[4-(4-Chlorophenoxy)-phenoxy]-1-propanol] the Anti-aggregation action ([1]; oral 100 mg/kg for 4 days) was “+” and the “solubility in water (in words)” value [2] was “insoluble in water”.

In the case of `CC(COC(=O)C(C)(C)Oc1ccc(Sc2ccc(Cl)cc2)cc1)SCCCCCCCCCCSC(C)COC(=O)C(C)(C)Oc1ccc(Sc2ccc(Cl)cc2)cc1` (racemic) [CRL 40,387, (±)-2,15-Dimethyl-3,14-dithia-1,16-hexadecyl di-{2-[p-(p-chlorophenylthio)-phenoxy]-2-methylpropionate}], the “effect on the blood platelet aggregation” value ([1]; 10, 20 and 50 mg/kg orally) is reported as “no effect”.

In the case of `CC(COC(=O)COc1ccc(Sc2ccc(Cl)cc2)cc1)SCCCCCCCCCCSC(C)COC(=O)COc1ccc(Sc2ccc(Cl)cc2)cc1` (racemic) [CRL 40,389, (±)-2,15-Dimethyl-3,14-dithia-1,16-hexadecyl di-[p-(p-chlorophenylthio)-phenoxy-acetate]], the tolerance in man (Clinical tests in man; [7]) is reported as “well tolerated”, the treatment of hyperlipidaemia (Clinical tests in man; [7]) is reported as “efficient” and the inhibition in vivo at 50 mg/kg ([3]; Rattus norvegicus, 96 h, 4 days, read-out: reduction in the cholesterol) is reported as 35%. It also gave an inhibition in vivo at 50 mg/kg ([3]; Rattus norvegicus, 96 h, 4 days, read-out: reduction in the lipids) of 35%.

For `CC(COC(=O)CSc1ccc(Oc2ccc(Cl)cc2)cc1)SCCCCCCCCCCSC(C)COC(=O)CSc1ccc(Oc2ccc(Cl)cc2)cc1` (racemic) [CRL 40,405, (±)-2,15-Dimethyl-3,14-dithia-1,16-hexadecyl di-[p-(p-chlorophenoxy)-phenylthio-acetate]], the “% transmission (collagen test)” value ([4]; 100 mg/kg) was -10%, the “latency time (collagen test)” value ([4]; 100 mg/kg, unit not given) was “+10” and the “speed (collagen test)” value ([4]; 100 mg/kg, unit not given) was -17. For the same compound, the inhibition in vivo at 100 mg/kg ([3]; Rattus norvegicus, 96 h, oral 100 mg/kg, 4 days) was 44%, the inhibition in vivo at 20 mg/kg ([3]; Rattus norvegicus, read-out: reduction in the cholesterol) was 30% and the inhibition in vivo at 20 mg/kg ([3]; Rattus norvegicus, read-out: reduction in the lipids) was 12%. For the same compound, the “reduction in the (total) lipids” value ([3]; oral 100 mg/kg, 4 days) was 35%.

In the case of `CC(COC(=O)C(C)(C)Sc1ccc(Oc2ccc(Cl)cc2)cc1)SCCCCCCCCCCSC(C)COC(=O)C(C)(C)Sc1ccc(Oc2ccc(Cl)cc2)cc1` (racemic) [CRL 40,414, (±)-2,15-Dimethyl-3,14-dithia-1,16-hexadecyl di-{2-[p-(p-chlorophenoxy)-phenylthio]-2-methylpropionate}], the treatment of hyperlipidaemia (Clinical tests in man; gelatine-coated pills of 300 mg, 3 per day) is reported as “used with success” and the “reduction in the (total) lipids” value ([3]; oral 100 mg/kg, 4 days) is reported as 12%.

In the case of `CC(C)(Oc1ccc(Sc2ccc(Cl)cc2)cc1)C(=O)O` [CRL 40,201, 4-(4-Chlorophenylthio)-phenoxyisobutyric acid], the inhibition at 10 mg/kg [5, 8] is reported as 35%, the inhibition at 10 mg/kg [5, 9] is reported as 30% and the inhibition at 25 mg/kg [5, 10] is reported as 48%. For the same compound, the inhibition at 25 mg/kg [5, 11] was 45%, the Total cholesterol ([5]; oral daily dose 0.010 g/kg) was 3.28 g/L and the Total lipids ([5]; oral daily dose 0.010 g/kg) was 9 g/L. The Total cholesterol ([5]; oral daily dose 0.025 g/kg) was 2.8 g/L and the Total lipids ([5]; oral daily dose 0.025 g/kg) was 7.7 g/L.

Work on `CC(C)(Oc1ccc([S+]([O-])c2ccc(Cl)cc2)cc1)C(=O)O` (stereo not shown) [CRL 40,202, 4-(4-Chlorophenylsulphinyl)-phenoxyisobutyric acid] yielded an inhibition at 10 mg/kg [5, 8] of 26%, an inhibition at 10 mg/kg [5, 9] of 27% and an inhibition at 25 mg/kg [5, 10] of 59%. For the same compound, the inhibition at 25 mg/kg [5, 11] was 53%, the Total cholesterol ([5]; oral daily dose 0.010 g/kg) was 3.64 g/L and the Total lipids ([5]; oral daily dose 0.010 g/kg) was 9.28 g/L. It also gave a Total cholesterol ([5]; oral daily dose 0.025 g/kg) of 2.38 g/L and a Total lipids ([5]; oral daily dose 0.025 g/kg) of 7.05 g/L.

With `CC(C)(Oc1ccc(Sc2ccc(Cl)cc2)cc1)C(=O)NCCO` [CRL 40,251, N-Hydroxyethyl-4-(4-chlorophenylthio)-phenoxy-isobutyramide] the “change in aggregation, collagen, latency period” value [4, 12] was “+23%”, the “change in aggregation, collagen, speed” value [4, 12] was -21% and the “solubility in water (in words)” value [2] was “insoluble in water”.

With `CC(C)(Oc1ccc(Sc2ccc(Cl)cc2)cc1)C(=O)OCCSCCCCCCCCCCSCCOC(=O)C(C)(C)Oc1ccc(Sc2ccc(Cl)cc2)cc1` [CRL 40,253, 3,14-Dithia-1,16-hexadecyl di-[4-(4-chlorophenylthio)-phenoxyisobutyrate]] the change in vivo at 10 mg/kg ([6]; read-out: Cholesterol (change)) was -40%, the change in vivo at 10 mg/kg [6, 13] was -40% and the “solubility in water (in words)” value [2] was “insoluble in water”.

For `CC(C)(CO)Oc1ccc(Oc2ccc(Cl)cc2)cc1` [CRL 40,310, 4-(4-Chlorophenoxy)-phenoxy-isobutanol], the change in vivo at 100 mg/kg ([6]; read-out: Cholesterol (change)) was -32%, the change in vivo at 100 mg/kg [6, 13] was -20% and the “solubility in water (in words)” value [2] was “insoluble in water”.

For `CC(C)(COS(C)(=O)=O)Oc1ccc(Oc2ccc(Cl)cc2)cc1` [CRL 40,312, 4-(4-Chlorophenoxy)-phenoxy-isobutyl mesylate], the Anti-aggregation action ([1]; oral 100 mg/kg for 4 days) was “+” and the “solubility in water (in words)” value [2] was “insoluble in water”.

With `Clc1ccc(Oc2ccc(OCC3=NCCN3)cc2)cc1` [CRL 40,322, 2-[4-(4-Chlorophenoxy)-phenoxy]-methyl-2-imidazoline hydrochloride] the Anti-aggregation action ([1]; oral 100 mg/kg for 4 days) was “+” and the “solubility in hot water (in words)” value ([2]; hot water, hydrochloride) was “soluble in hot water”.

In the case of `CCN(CC)CCOc1ccc(Oc2ccc(Cl)cc2)cc1.Cl` [CRL 40,330, N,N-Diethyl-2-[4-(4-chlorophenoxy)-phenoxy]-ethylamine hydrochloride], the Anti-aggregation action ([1]; oral 100 mg/kg for 4 days) is reported as “+”, the change in vivo at 100 mg/kg ([6]; read-out: Cholesterol (change)) is reported as -13% and the change in vivo at 100 mg/kg [6, 13] is reported as -13%.

For `CC(C)(O)COc1ccc(Oc2ccc(Cl)cc2)cc1` [CRL 40,332, 1-[4-(4-Chlorophenoxy)-phenoxy]-2-methyl-2-propanol], the Anti-aggregation action ([1]; oral 100 mg/kg for 4 days) was “+” and the “solubility in water (in words)” value [2] was “insoluble in water”.

With `O=C(O)COc1ccc(Oc2ccc(Cl)cc2)cc1` [CRL 40,333, 4-(4-Chlorophenoxy)-phenoxyacetic acid] the Anti-aggregation action ([1]; oral 100 mg/kg for 4 days) was “++”, the change in vivo at 100 mg/kg ([6]; read-out: Cholesterol (change)) was -20% and the change in vivo at 100 mg/kg [6, 13] was -24%. For the same compound, the “solubility in water (in words)” value [2] was “insoluble in water”.

For `CCN(CC)CCNC(=O)COc1ccc(Oc2ccc(Cl)cc2)cc1.Cl` [CRL 40,334, N-(2-Diethylaminoethyl)-4-(4-chlorophenoxy)-phenoxy-acetamide hydrochloride], the Anti-aggregation action ([1]; oral 100 mg/kg for 4 days) was “+++”, the change in vivo at 100 mg/kg ([6]; read-out: Cholesterol (change)) was -17% and the change in vivo at 100 mg/kg [6, 13] was -17%. The “solubility in water (in words)” value [2] was “soluble in water”.

With `OCCSCCCCCCCCCCSCCO` [LL 1558, 1,10-bis-(2-hydroxyethyl-thio)-decane, reference compound] the inhibition at 100 mg/kg [5, 14] was 63%, the inhibition at 100 mg/kg [5, 15] was 54% and the Total cholesterol ([5]; oral daily dose 0.1 g/kg) was 2.22 g/L. The Total lipids ([5]; oral daily dose 0.1 g/kg) was 7 g/L.

Work on `CCOC(=O)C(C)(C)Oc1ccc(Cl)cc1` [Lipavlon, ethyl 2-(p-chlorophenoxy)-2-methyl-propionate, reference compound] yielded an inhibition at 100 mg/kg [5, 14] of 11%, an inhibition at 100 mg/kg [5, 15] of 14% and a Total cholesterol ([5]; oral daily dose 0.1 g/kg) of 4.18 g/L. The Total lipids ([5]; oral daily dose 0.1 g/kg) was 10.4 g/L.
